Assay results from patent US12590953B2, “Methods for screening cereblon modifying compounds” (CELGENE CORPORATION, priority 2018, dated 2026).
“Also recorded” adds a separate entry of the source. Like-named read-outs stand apart in the source and are kept apart here.

Tests used:
[1] = tested on: SALL4; assay: Cellular degradation of SALL4 variants in lenti-X-293 HEK cells expressing GST-CRBN; format: cell-based, human; conditions: 40 μM thalidomide, 16 hours
Method: Cells were treated with […] (+) or DMSO vehicle control (−) as indicated for 16 hours (n=2, biological replicates).
Lenti-x-293 cells stably expressing GST-CRBN and SALL4 variants were treated with DMSO or 40 μM thalidomide for 16 hours. Cells were then wished with ice-cold 1×PBS twice, lysed in buffer A [50 mM Tris. CL, 150 mM NaCl, 1% triton-x 100, complete protease inhibitor tablet (Roche), phosphatase inhibitor tablet (Roche)]. Whole cell extracts were harvested and subjected to immunoblot analysis.

[2] = tested on: SALL4; assay: SALL4 immunohistochemistry in rabbit testis; format: in vivo; conditions: male rabbits
Method: Male New Zealand white rabbits were treated with vehicle (1% Carboxymethylcellulose in deionized water), or Thalidomide at either 30 or 150 mg/kg/day for 56 days to investigate testicular degeneration. Testis were collected 24 hours after the last dose, fixed in 10% NBF, processed, embedded in paraffin and sectioned at 4 microns for immunohistochemistry.
(§1) Rabbit embryos were stained for SALL4, and mouse testis were stained for SALL4 and ZFP91. Immunohistochemistry (IHC) was performed on the Bond-III automated slide stainer (Leica Microsystems, Buffalo Grove, Ill.) using the Bond Polymer Refine Detection system (Leica Microsystems, DS9800). Formalin fixed paraffin embedded (FFPE) tissues were sectioned at four micron thick and deparaffinized on the Bond-Max instrument. Antigen retrieval was performed with Epitope Retrieval 2 (ER2, pH 9.0) for 20 min at 100° C. The slides were blocked for endogenous peroxidase activity with Peroxide Block for 5 minutes at room temperature. Sections were then incubated with the mouse monoclonal anti-SALL4 EE-30 antibody (Santa Cruz, sc-101147) at a 1:100 dilution for 60 min at room temperature, or with the rabbit monoclonal anti-ZFP91 antibody (Celgene custom clone 122-8-6) at 0.25 ug/ml. […]

[3] = tested on: huCRBN mice; format: in vivo; conditions: for Live fetuses: female, HOM huCRBN (humanized cereblon)
Method: Thalidomide was administered to female HOM huCRBN mice by oral gavage at dose levels of 0 (1.0% [w/v] carboxymethylcellulose [1500-3000 cP] in RO deionized water), 100, 300, or 1000 mg/kg/day once daily on Gestation Day [GD] 6 through 15. On GD 15, blood samples were collected from the submandibular vein of mice assigned to study at 0.5, 1, 3, 6, and 24 hours postdose for bioanalytical and toxicokinetic evaluation. […] Mice were euthanized and examined, and a gross necropsy was performed. The ovaries and uterus were examined for number and distribution of corpora lutea, implantation sites, placentae (size, color, and shape), live and dead fetuses, and early and late resorptions. Fetuses were euthanized by an intraperitoneal injection of sodium pentobarbital (390 mg/mL). Fetuses were weighed and examined for sex and external abnormalities. Late resorptions were examined for external abnormalities and sex to the extent possible. The body weight of each fetus was recorded. Fetuses were individually identified with the study number, litter number and uterine distribution. Approximately one-half of the fetuses in each litter were examined for visceral abnormalities by using an adaptation of the sectioning technique of Wilson. Each fetus was fixed in Bouin's solution; sections were stored in alcohol. The remaining fetuses (approximately one-half of the fetuses in each litter) were examined for skeletal abnormalities after staining with alizarin red S. Following examination, skeletal preparations were retained in glycerin with thymol added as a preservative.

[4] = biological target: Ikaros (Homo sapiens, UniProt Q13422+Q96SW2); assay: Degradation of Ikaros (data not shown)
[5] = biological target: CK1α (Homo sapiens, UniProt P48729); assay: Degradation of CK1α (data not shown)
[6] = biological target: ZFP91 (Mus musculus, UniProt Q62511); assay: ZFP91 immunohistochemistry in wild-type mouse testis; format: in vivo; design: tissue Taconic; host or cells: wild-type mouse testis (C57Bl/6Ntac); conditions: wild type mice, 1000 mg/kg
Method: The SALL4 and ZFP91 protein levels were examined by immunohistochemistry in rabbit, wild-type mouse, and humanized cereblon mouse testes. […] HuCRBN Mice were treated for 7 days and testis were collected and examined by immunohistochemistry (n=3 animals per treatment group per species).
as §1, with “ug/ml. For mouse testis, primary antibodies were incubated for 15 min at room temperature, and Post-Primary and horseradish peroxidase (HRP) labeled Polymer were incubated at the instrument's default conditions.” for “ug/ml.”

Sequence of ZFP91 (Q8C7D2 whole entry partner): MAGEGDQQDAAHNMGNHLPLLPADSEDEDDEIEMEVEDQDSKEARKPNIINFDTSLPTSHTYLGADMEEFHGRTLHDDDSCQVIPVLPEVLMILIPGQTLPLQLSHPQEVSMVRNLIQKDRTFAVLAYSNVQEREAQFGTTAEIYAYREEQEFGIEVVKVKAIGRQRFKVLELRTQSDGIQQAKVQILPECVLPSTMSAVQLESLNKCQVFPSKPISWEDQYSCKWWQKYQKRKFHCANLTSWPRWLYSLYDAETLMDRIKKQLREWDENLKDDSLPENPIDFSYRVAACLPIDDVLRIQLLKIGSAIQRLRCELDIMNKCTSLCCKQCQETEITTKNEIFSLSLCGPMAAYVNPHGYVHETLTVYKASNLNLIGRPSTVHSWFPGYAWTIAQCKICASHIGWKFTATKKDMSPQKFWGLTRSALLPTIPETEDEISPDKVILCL
Sequence of ZFP91 (Q3U1J4 whole entry partner): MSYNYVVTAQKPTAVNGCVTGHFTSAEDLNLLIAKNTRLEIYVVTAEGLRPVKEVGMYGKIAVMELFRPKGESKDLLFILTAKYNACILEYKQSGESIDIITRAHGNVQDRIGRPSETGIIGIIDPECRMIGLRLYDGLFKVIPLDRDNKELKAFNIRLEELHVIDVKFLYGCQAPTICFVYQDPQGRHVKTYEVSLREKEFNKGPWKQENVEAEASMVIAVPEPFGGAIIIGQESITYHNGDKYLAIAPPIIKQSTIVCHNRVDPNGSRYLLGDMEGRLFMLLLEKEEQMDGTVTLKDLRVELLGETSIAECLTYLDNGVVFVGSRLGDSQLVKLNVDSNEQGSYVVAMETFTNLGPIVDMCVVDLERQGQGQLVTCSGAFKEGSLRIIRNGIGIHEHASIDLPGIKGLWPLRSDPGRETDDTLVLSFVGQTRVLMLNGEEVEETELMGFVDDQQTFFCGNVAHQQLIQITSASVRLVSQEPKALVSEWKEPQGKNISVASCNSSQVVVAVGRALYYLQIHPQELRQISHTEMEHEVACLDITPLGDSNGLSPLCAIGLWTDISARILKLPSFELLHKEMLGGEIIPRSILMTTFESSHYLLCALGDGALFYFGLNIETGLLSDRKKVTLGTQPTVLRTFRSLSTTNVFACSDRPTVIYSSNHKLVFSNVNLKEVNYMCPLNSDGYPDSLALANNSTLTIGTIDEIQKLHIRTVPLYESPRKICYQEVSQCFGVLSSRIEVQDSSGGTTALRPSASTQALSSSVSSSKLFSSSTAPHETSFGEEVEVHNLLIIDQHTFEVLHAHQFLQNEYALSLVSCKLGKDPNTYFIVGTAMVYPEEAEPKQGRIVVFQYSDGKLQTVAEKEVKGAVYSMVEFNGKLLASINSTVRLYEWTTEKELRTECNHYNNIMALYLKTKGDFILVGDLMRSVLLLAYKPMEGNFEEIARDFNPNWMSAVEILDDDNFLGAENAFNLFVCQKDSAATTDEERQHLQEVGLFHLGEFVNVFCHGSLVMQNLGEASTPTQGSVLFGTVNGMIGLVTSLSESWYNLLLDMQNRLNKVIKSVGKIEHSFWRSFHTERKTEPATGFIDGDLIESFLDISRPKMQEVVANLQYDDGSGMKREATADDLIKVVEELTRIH
Sequence of ZFP91 (Q62511 whole entry): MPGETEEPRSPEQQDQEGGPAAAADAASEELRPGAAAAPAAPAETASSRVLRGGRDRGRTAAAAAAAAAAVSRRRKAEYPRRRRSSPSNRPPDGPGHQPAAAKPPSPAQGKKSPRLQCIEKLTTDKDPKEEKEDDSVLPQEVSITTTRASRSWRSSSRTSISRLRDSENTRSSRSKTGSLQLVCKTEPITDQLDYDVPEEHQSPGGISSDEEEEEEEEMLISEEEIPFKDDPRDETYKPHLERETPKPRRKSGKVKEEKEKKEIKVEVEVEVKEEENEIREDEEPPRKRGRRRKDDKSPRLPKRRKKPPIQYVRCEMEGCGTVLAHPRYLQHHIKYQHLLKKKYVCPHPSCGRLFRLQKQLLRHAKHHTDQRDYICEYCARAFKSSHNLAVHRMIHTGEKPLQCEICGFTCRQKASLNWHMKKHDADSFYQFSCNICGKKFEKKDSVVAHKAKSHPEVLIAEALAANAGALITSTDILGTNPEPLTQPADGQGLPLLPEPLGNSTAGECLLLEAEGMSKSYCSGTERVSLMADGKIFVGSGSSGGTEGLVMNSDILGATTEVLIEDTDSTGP
Sequence of Ikaros (Q13422 whole entry, species assumed): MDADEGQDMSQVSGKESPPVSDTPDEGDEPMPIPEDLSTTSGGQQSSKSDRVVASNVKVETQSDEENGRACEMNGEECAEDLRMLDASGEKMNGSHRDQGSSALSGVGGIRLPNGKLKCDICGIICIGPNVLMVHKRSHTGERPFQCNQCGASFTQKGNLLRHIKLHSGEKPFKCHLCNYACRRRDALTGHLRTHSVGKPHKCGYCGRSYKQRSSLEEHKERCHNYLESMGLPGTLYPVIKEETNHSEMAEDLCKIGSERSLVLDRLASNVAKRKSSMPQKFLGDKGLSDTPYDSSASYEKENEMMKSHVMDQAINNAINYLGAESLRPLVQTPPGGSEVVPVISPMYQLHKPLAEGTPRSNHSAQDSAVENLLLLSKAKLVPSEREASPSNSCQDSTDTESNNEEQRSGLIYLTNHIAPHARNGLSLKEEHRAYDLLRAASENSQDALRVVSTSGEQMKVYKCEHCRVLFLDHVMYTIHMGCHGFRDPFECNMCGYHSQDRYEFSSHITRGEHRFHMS
Sequence of Ikaros (Q96SW2 whole entry, species assumed): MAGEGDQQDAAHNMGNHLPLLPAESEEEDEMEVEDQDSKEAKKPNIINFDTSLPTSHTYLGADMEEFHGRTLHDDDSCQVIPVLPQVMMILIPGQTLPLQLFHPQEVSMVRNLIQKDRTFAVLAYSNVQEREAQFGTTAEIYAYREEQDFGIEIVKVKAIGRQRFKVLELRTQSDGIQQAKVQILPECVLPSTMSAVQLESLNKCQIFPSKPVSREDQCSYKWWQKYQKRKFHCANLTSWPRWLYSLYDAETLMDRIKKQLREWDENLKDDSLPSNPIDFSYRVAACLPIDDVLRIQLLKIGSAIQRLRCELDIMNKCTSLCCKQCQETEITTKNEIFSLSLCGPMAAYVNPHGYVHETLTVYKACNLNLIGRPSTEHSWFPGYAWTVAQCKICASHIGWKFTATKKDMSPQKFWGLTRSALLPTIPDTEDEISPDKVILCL
Sequence of Ikaros (Q16531 whole entry partner, species assumed): as the sequence (Q3U1J4 whole entry partner) above, with G418N, G495A, S745T, A1020T counted along it
Sequence of CK1α (Q96SW2 whole entry partner): as the sequence (Q96SW2 whole entry, species assumed) above
Sequence of CK1α (Q16531 whole entry partner): as the sequence (Q3U1J4 whole entry partner) above, with G418N, G495A, S745T, A1020T counted along it
Sequence of CK1α (P48729 whole entry): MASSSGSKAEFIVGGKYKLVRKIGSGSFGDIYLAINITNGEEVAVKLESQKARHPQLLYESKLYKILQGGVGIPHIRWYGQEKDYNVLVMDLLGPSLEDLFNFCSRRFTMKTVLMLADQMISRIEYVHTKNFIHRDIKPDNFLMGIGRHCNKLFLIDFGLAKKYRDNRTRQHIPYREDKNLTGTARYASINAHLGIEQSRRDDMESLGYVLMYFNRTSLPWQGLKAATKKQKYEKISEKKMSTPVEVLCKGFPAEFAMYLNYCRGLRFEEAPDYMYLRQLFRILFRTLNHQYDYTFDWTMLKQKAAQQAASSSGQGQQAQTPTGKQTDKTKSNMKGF

O=C1CCC(N2C(=O)c3ccccc3C2=O)C(=O)N1 (stereo not drawn) [thalidomide]
Degradation of G416A SALL4 [1]: blocked the thalidomide dependent degradation of SALL4
Degradation of G600A SALL4 [1]: had no effect on SALL4 degradation
SALL4 protein levels in testis ([2]; 150 mg/kg/day): marked decrease; also recorded: caused degradation of both ZFP91 and SALL4
SALL4 protein levels in testis, dose dependence ([2]; 30 or 150 mg/kg/day for 56 days): dose-dependent decrease in SALL4 levels in the testis of male rabbits; also recorded: dose-dependent reduction of SALL4 protein levels in the testis; also recorded: dose dependent decrease in SALL4 levels in rabbit testis
Maternal survival ([3]; female huCRBN mice, 0, 100, 300, or 1000 mg/kg/day, GD 6 through 15): All animals survived to scheduled necropsy on GD 18
Live fetuses ([3]; mouse, in vivo, 100 mg/kg/day): 9
Live fetuses ([3]; mouse, in vivo, 300 mg/kg/day): 7
Live fetuses ([3]; mouse, in vivo, 1000 mg/kg/day): 8
Limb defects (fetal skeleton, alizarin red S) ([3]; mouse, in vivo, 1000 mg/kg): limb defects were not observed
Triggering the degradation of Ikaros [4]: only moderately active in triggering the degradation of Ikaros
Triggering the degradation of CK1α [5]: does not trigger the degradation of CK1α
ZFP91 protein levels in testis [6]: exhibited no depletion of SALL4 or ZFP91; also recorded: did not cause significant degradation of either ZFP91 or SALL4
